Measured values published in patent US11498885B2, “Use of pyrazole propargyl ethers as nitrification inhibitors” (BASF SE, priority 2018, dated 2022).

Key:
[1] = test system: nitrification; assay: inhibition of nitrification in soil incubation test; assay type: cell-based, soil microbial biomass; conditions: 100 g soil, 10 mg ammoniumsulfate-N, 20° C., 14 days, best obtained NI value
Description: The compounds of the invention have been tested as follows in terms of the inhibition of nitrification: 100 g soil is filled into 500 ml plastic bottles (e.g. soil sampled from the field) and is moistened to 50% water holding capacity. The soil is incubated at 20° C. for two weeks to activate the microbial biomass. 1 ml test solution, containing the compound in the appropriate concentration (usually 0.3 or 1% of nitrogen N), or DMSO and 10 mg nitrogen in the form of ammoniumsulfate-N is added to the soil and everything mixed well. Bottles are capped but loosely to allow air exchange. The bottles are then incubated at 20° C. for 0 and 14 days. For analysis, 300 ml of a 1% K2SO4-solution is added to the bottle containing the soil and shaken for 2 hours in a horizontal shaker at 150 rpm. Then the whole solution is filtered through a filter (Macherey-Nagel Filter MN 807¼). Ammonium and nitrate content is then analyzed in the filtrate in an autoanalyzer at 550 nm (Merck, AA11). The inhibition (NI @ a specified concentration) is calculated as follows: [formula]

[2] = volatility of prior-art nitrification inhibitor; assay type: physicochemical; conditions: stated as disadvantageous for long-term applications

Row | SMILES | NI* @ 0.3% ([1]; compound at 0.3% of nitrogen N) | NI* @ 1% ([1]; compound at 1% of nitrogen N) | volatility [2]
1 | C#CCOc1ccn[nH]1 [Compound 1] | 60.6 | 74.7 | 
2 | CCOc1cc(C)[nH]n1 [3-ethoxy-5-methylpyrazole] |  |  | high volatility
